In patent publication US10150728B2, “Alkylene derivatives” (Shionogi & Co., Ltd., priority 2013, dated 2018):

Biological target: recombinant human ACC2 (Homo sapiens (Human), UniProt O00763)
Experiment: Measurement of inhibitory activity on human ACC2 (MALDI-TOF MS, acetyl CoA to malonyl CoA conversion)
Type: biochemical
Details: Tables 155-159
Source text: Preparation 1: Preparation of Recombinant Human ACC2
After a cDNA encoding human ACC2 (27 amino acid residue to 2458 amino acid residues from the N-terminus) was cloned from human kidney cDNA library (Clontech), human ACC2 gene containing His-tag sequence at 5′ terminus was inserted into pFastBac1 (Invitrogen). Recombinant baculovirus was generated using Bac-to-Bac baculovirus expression system (Invitrogen) according to the manufacturer's protocol. To express human ACC2, Sf-9 cells were infected with recombinant baculovirus. After infected cells were disrupted, the filtrated lysate was subjected to Ni-affinity chromatography and anion-exchange chromatography. The fractions containing human ACC2 protein were pooled as recombinant human ACC2 solution.
The Measurement of Inhibitory Activity on Human ACC1 and the ACC2
Recombinant human ACC1 and recombinant human ACC2, which were prepared by the method mentioned above, were preincubated with assay buffer solution (50 mM HEPES-KOH (pH 7.4), 10 mM magnesium chloride, 6-10 mM potassium citrate, 4 mM reduced form of glutathione, 1.5 mg/ml bovine serum albumin) for one hour. Then, 0.2 μL of each this invention compound solution (in DMSO) were dispensed to 384-well microplate, 5 μL of the preincubated enzyme solution and 5 μL of substrate solution (50 mM HEPES-KOH (pH 7.4), 1 mM ATP, 0.8 mM acetyl CoA and 25-50 mM potassium bicarbonate) were added to microplate. After centrifugation and shaking, the reaction mixtures were incubated in a humidified box at room temperature for 1 to 3 hours. After the incubation, the enzyme reactions were stopped by the addition of EDTA. Then, after the samples were cocrystallized with CHCA (α-cyano-4-hydroxy cinnamic acid) matrices on MALDI target plate, by using the matrix assist laser […] time-of-flight mass spectrometer (MALDI-TOF MS), samples were measured in reflector negative mode. Deprotonated ions of acetyl CoA (AcCoA) of substrate and malonyl CoA (MalCoA) of the reaction product were detected, then, the conversion rates of acetyl CoA to malonyl CoA was calculated by the intensity of [MalCoA-H]−/(Intensity of [MalCoA-H]−+Intensity of [AcCoA-H]−) using each signal strength. […] In addition, potassium citrate concentrations in assay buffer solution, potassium hydrogen carbonate concentrations in substrate solution and incubation time were adjusted by each lot of enzyme.

recombinant human ACC2, sequence (O00763 27-2458): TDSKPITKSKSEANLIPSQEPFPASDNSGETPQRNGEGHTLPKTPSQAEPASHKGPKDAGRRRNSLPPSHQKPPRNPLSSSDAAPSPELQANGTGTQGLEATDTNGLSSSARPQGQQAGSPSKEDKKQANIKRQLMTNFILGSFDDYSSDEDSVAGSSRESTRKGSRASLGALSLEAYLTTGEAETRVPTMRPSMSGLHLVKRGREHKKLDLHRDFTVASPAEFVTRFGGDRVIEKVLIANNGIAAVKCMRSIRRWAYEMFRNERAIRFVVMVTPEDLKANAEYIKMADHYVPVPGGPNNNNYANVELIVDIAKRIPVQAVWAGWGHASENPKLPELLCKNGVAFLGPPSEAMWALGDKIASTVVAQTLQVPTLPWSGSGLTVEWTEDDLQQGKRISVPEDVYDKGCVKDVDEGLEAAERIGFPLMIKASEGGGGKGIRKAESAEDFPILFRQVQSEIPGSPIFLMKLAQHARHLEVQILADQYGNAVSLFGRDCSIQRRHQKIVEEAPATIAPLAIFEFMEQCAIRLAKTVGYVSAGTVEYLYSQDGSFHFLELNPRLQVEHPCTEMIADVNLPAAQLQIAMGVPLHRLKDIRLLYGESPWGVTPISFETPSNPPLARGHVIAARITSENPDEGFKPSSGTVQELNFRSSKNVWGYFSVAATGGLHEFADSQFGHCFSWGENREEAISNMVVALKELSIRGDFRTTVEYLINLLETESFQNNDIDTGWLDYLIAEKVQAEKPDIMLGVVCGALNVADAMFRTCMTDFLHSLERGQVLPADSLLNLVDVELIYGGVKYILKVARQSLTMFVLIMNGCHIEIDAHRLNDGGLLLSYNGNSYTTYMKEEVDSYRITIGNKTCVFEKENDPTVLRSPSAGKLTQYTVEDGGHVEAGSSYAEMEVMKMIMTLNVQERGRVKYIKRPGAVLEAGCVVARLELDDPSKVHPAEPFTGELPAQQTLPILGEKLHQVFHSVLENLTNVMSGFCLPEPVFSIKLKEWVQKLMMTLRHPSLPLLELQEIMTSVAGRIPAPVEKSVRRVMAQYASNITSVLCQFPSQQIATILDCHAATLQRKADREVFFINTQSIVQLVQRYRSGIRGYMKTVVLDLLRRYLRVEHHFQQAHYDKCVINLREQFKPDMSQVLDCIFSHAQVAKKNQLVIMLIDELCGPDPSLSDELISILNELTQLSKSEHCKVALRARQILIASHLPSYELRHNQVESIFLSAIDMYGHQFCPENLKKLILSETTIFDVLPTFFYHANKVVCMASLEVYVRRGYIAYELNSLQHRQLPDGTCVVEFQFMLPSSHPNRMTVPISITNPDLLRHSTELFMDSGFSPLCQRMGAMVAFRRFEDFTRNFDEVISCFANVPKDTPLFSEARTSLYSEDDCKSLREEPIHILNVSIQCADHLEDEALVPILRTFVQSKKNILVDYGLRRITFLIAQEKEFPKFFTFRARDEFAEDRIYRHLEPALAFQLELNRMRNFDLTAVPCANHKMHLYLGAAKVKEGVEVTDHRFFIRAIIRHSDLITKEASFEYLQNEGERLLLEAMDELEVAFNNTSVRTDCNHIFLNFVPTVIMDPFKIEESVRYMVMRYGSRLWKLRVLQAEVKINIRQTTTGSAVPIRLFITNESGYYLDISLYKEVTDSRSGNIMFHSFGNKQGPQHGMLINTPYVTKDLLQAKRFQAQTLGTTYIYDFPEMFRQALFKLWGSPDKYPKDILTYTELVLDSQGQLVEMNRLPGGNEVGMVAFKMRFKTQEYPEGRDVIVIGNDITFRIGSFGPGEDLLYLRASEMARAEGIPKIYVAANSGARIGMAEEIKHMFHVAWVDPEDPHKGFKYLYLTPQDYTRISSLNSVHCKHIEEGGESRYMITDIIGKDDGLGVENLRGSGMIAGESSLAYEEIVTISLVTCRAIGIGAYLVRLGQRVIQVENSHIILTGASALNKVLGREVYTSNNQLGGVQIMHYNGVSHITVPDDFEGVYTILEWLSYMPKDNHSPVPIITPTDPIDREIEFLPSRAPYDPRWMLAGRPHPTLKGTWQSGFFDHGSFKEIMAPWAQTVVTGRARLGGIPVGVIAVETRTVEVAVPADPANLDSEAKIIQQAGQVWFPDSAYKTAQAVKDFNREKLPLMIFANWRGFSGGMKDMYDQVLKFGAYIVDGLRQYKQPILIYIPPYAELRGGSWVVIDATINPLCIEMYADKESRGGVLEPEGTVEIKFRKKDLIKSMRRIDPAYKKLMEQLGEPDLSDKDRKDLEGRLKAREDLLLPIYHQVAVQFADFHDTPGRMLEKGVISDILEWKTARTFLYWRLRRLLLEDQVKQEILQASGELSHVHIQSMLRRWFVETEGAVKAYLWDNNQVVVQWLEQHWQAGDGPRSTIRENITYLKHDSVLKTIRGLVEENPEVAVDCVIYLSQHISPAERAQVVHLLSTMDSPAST

SMILES | IC50 [nM]
CC(=O)N[C@@H](C)CO[C@H]1C[C@H](COc2ccc3nc(OCC(F)F)sc3c2F)C1 [Compound I-151] | 75
CC(=O)N[C@@H](C)CO[C@H]1C[C@H](COc2ccc3nc(OCC(F)(F)F)sc3c2F)C1 [Compound I-152] | 64
CC(=O)N[C@@H](C)CO[C@H]1C[C@H](COc2ccc3nc(OC(C)C)sc3c2F)C1 [Compound I-153] | 43
C[C@@H](CO[C@H]1CC[C@H](Oc2ccc3nc(C(C)(F)F)sc3c2F)CC1)NC(N)=O [Compound I-158] | 48
CC(=O)N[C@@H](C)CO[C@H]1C[C@H](COc2cc3sc(C(C)(C)O)nc3cc2F)C1 [Compound I-159] | 641
CC(=O)N[C@@H](C)CO[C@H]1C[C@](F)(COc2ccc3nc(C(C)(C)O)sc3c2F)C1 [Compound I-160] | 809
CC(=O)N[C@@H](C)CO[C@H]1CC[C@H](Oc2ccc3nc(O[C@H]4C[C@H](C#N)C4)sc3c2F)CC1 [Compound I-161] | 146
CC(=O)N[C@@H](C)CO[C@H]1CC[C@H](Oc2ccc3nc(O[C@H]4C[C@@H](C#N)C4)sc3c2F)CC1 [Compound I-162] | 74
CCOc1nc2ccc(OC[C@]3(F)C[C@@H](OC[C@H](C)NC(C)=O)C3)nc2s1 [Compound I-163] | 39
CCOc1nc2cc(F)c(OC[C@]3(F)C[C@@H](OC[C@H](C)NC(C)=O)C3)nc2s1 [Compound I-164] | 39
CC(=O)N[C@@H](C)CO[C@H]1CC[C@H](Oc2ccc3nc(N4CC(C)(C)C4)sc3c2F)CC1 [Compound I-167] | 59
CC(=O)N[C@@H](C)CO[C@H]1CC[C@H](Oc2cc3sc(OC(C)CF)nc3cc2Cl)CC1 (some centres unmarked) [Compound I-168] | 95
CC(=O)N[C@@H](C)CO[C@H]1C[C@H](COc2ccc3nc(C(C)(C)O)sc3n2)C1 [Compound I-171] | 152
CC(=O)N[C@@H](C)CO[C@H]1C[C@](F)(COc2cc3sc(C(C)C)nc3cn2)C1 [Compound I-174] | 931
CC(=O)N[C@@H](C)CO[C@H]1CC[C@H](Oc2ccc3nc(N4CCOCC4)sc3c2F)CC1 [Compound I-176] | 42
CC(=O)N[C@@H](C)CO[C@H]1CC[C@H](Oc2cc3sc(OCC(F)(F)F)nc3cn2)CC1 [Compound I-184] | 54
CC(=O)N[C@@H](C)CO[C@H]1CC[C@H](Oc2cc3sc(OCC(F)F)nc3cn2)CC1 [Compound I-185] | 44
CC(=O)N[C@@H](C)CO[C@H]1CC[C@H](Oc2ccc3nc(N4CC(C)(O)C4)sc3c2F)CC1 [Compound I-187] | 234
CC(=O)N[C@@H](C)CO[C@H]1CC[C@H](Oc2ccc3nc(N4CCC(F)(F)CC4)sc3c2F)CC1 [Compound I-188] | 41
CCN(C)c1nc2ccc(O[C@H]3CC[C@H](OC[C@H](C)NC(C)=O)CC3)c(F)c2s1 [Compound I-190] | 73
CC(=O)N[C@@H](C)CO[C@H]1C[C@H](COc2ccc3nc(OCC4(C#N)CC4)sc3n2)C1 [Compound I-192] | 61
CC(=O)N[C@@H](C)CO[C@H]1C[C@H](COc2ccc3nc(OCC4CCO4)sc3n2)C1 (some centres unmarked) [Compound I-199] | 121
CC(=O)N[C@@H](C)CO[C@H]1C[C@](F)(COc2ccc3nc(OC(C)CF)sc3n2)C1 (some centres unmarked) [Compound I-202] | 66
CC(=O)N[C@@H](C)CO[C@H]1C[C@](F)(COc2ccc3nc(OCC(C)(F)F)sc3n2)C1 [Compound I-203] | 48
CC(=O)N[C@@H](C)CO[C@H]1C[C@](F)(COc2ccc3nc(Oc4ccc(F)cc4)sc3n2)C1 [Compound I-204] | 113
C[C@@H](CO[C@H]1C[C@H](COc2ccc3nc(OCC(F)F)sc3n2)C1)NC(=O)O [Compound I-206] | 79
CC(=O)N[C@@H](C)CO[C@H]1C[C@H](COc2ccc3nc(OCC4(C)COC4)sc3n2)C1 [Compound I-211] | 97

These reach a lower IC50. Values come first.

IC50 [nM] | SMILES
30 | C[C@@H](CO[C@H]1CC[C@H](Oc2ccc3nc(C(C)(F)F)sc3c2F)CC1)NC(=O)C1COC1 [Compound I-166]
30 | CC(=O)N[C@@H](C)CO[C@H]1C[C@H](COc2ccc3nc(OC4(C)CC4)sc3n2)C1 [Compound I-200]
28 | CCOc1nc2cnc(O[C@H]3CC[C@H](OC[C@H](C)NC(C)=O)CC3)cc2s1 [Compound I-179]
28 | CC(=O)N[C@@H](C)CO[C@H]1C[C@H](COc2ccc3nc(OCC4(F)COC4)sc3n2)C1 [Compound I-195]
27 | CC(=O)N[C@@H](C)CO[C@H]1CC[C@H](Oc2ccc3nc(N4CCC(F)(F)C4)sc3c2F)CC1 [Compound I-189]
25 | CC(=O)N[C@@H](C)CO[C@H]1C[C@H](COc2ccc3nc(OC4CCC4)sc3c2F)C1 [Compound I-155]
25 | C[C@@H](CO[C@H]1C[C@H](COc2ccc3nc(OCC(F)F)sc3n2)C1)NC(N)=O [Compound I-205]
21 | CC(=O)N[C@@H](C)CO[C@H]1C[C@H](COc2nc3sc(OCC(F)F)nc3cc2F)C1 [Compound I-180]
17 | CC(=O)N[C@@H](C)CO[C@H]1C[C@H](COc2ccc3nc(OC4CC4)sc3c2F)C1 [Compound I-154]
17 | CC(=O)N[C@@H](C)CO[C@H]1CC[C@](F)(COc2ccc3nc(OCC4CC4)sc3n2)CC1 [Compound I-201]
17 | CCOc1nc2cc(Cl)c(OC[C@H]3C[C@H](OC[C@H](C)NC(C)=O)C3)nc2s1 [Compound I-212]
15 | CC(=O)N[C@@H](C)CO[C@H]1C[C@H](COc2ccc3nc(OCC4CC4(F)F)sc3n2)C1 (some centres unmarked) [Compound I-197]
14 | CC(=O)N[C@@H](C)CO[C@H]1C[C@H](COc2nc3sc(OCC(F)(F)F)nc3cc2F)C1 [Compound I-181]
14 | CC(=O)N[C@@H](C)CO[C@H]1CC[C@H](Oc2cc3sc(OCC4CC4)nc3cn2)CC1 [Compound I-183]
13 | CC(=O)N[C@@H](C)CO[C@H]1C[C@H](COc2ccc3nc(OC4CC4)sc3n2)C1 [Compound I-172]
12 | CC(=O)N[C@@H](C)CO[C@H]1C[C@H](COc2ccc3nc(Oc4ccc(F)cc4)sc3c2F)C1 [Compound I-156]
12 | CC(=O)N[C@@H](C)CO[C@H]1C[C@H](COc2nc3sc(OC(C)C)nc3cc2F)C1 [Compound I-182]
12 | CC(=O)N[C@@H](C)CO[C@H]1C[C@H](COc2ccc3nc(OC[C@H](C)F)sc3n2)C1 [Compound I-191]

IC50 [nM] | SMILES
12 | CC(=O)N[C@@H](C)CO[C@H]1C[C@H](COc2ccc3nc(OCC(C)(F)F)sc3n2)C1 [Compound I-193]
12 | CC(=O)N[C@@H](C)CO[C@H]1C[C@H](COc2ccc3nc(OC(C)CF)sc3n2)C1 (some centres unmarked) [Compound I-194]
12 | CC(=O)N[C@@H](C)CO[C@H]1C[C@H](COc2ccc3nc(OCC(C)C)sc3n2)C1 [Compound I-196]
12 | CC(=O)N[C@@H](C)CO[C@H]1CC[C@H](Oc2ccc3nc(OC(C)C)sc3n2)CC1 [Compound I-209]
11 | CC(=O)N[C@@H](C)CO[C@H]1CC[C@H](Oc2ccc3nc(N4CC(F)(F)C4)sc3c2F)CC1 [Compound I-175]
11 | C[C@@H](CO[C@H]1C[C@H](COc2ccc3nc(OCC(F)F)sc3n2)C1)NC(=O)C(F)(F)F [Compound I-207]
10 | CC(=O)N[C@@H](C)CO[C@H]1C[C@H](COc2ccc3nc(OCC(F)F)sc3n2)C1 [Compound I-169]
8 | CC(=O)N[C@@H](C)CO[C@H]1CC[C@H](Oc2ccc3nc(N4CC(F)(F)C4)sc3n2)CC1 [Compound I-208]
7 | CCOc1nc2cc(F)c(OC[C@H]3C[C@H](OC[C@H](C)NC(C)=O)C3)nc2s1 [Compound I-165]
6 | CC(=O)N[C@@H](C)CO[C@H]1C[C@H](COc2ccc3nc(OCC(F)(F)F)sc3n2)C1 [Compound I-170]
6 | CCOc1nc2ccc(O[C@H]3CC[C@H](OC[C@H](C)NC(C)=O)CC3)cc2s1 [Compound I-177]
6 | CCOc1nc2cnc(O[C@H]3CC[C@H](OC[C@H](C)NC(C)=O)CC3)c(F)c2s1 [Compound I-210]
5 | CC(=O)N[C@@H](C)CO[C@H]1C[C@H](COc2ccc3nc(OC(C)C)sc3n2)C1 [Compound I-173]
5 | CCOc1nc2cc(F)c(O[C@H]3CC[C@H](OC[C@H](C)NC(C)=O)CC3)nc2s1 [Compound I-186]
5 | CC(=O)N[C@@H](C)CO[C@H]1C[C@H](COc2ccc3nc(OCC4(C)CC4)sc3n2)C1 [Compound I-198]
3 | CCOc1nc2ccc(OC[C@H]3C[C@H](OC[C@H](C)NC(C)=O)C3)nc2s1 [Compound I-157]
3 | CCOc1nc2ccc(O[C@H]3CC[C@H](OC[C@H](C)NC(C)=O)CC3)nc2s1 [Compound I-178]
